These results are taken from patent US9394338B2, “Glutathione analogs and uses thereof” (REGENTS OF THE UNIVERSITY OF MINNESOTA, priority 2011, dated 2016).

One series has as its target T1, yeast glyoxalase I (Saccharomyces cerevisiae, UniProt P50107).
T1 construct: purchased Sigma
T1 sequence (P50107 1-326): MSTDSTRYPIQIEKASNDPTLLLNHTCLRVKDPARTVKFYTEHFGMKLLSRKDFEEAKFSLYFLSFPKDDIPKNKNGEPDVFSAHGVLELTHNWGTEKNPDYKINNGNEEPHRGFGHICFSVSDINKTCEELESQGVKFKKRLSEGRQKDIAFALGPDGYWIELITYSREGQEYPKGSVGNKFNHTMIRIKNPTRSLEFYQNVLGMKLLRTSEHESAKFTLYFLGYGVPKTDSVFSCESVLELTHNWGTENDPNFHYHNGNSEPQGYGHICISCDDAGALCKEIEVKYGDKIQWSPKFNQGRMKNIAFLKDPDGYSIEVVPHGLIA
Briefly: Glyoxalase I enzyme kinetics assay. It is filed as biochemical. The settings on record: yeast Glx-I, MG, 30° C., phosphate buffer pH 6.6. How it is done:
Glyoxalase I Enzyme Kinetics Assay. The glutathione analog, Ψ-GSH and asparthione were examined for their ability to act as substrates for the yeast glyoxalase I mediated […] of MG. The commercial 40% methylglyoxal solution was distilled to remove polymerization products. Enzyme assays were performed (30° C., 0.05 M phosphate buffer (pH 6.6)) using a thermostated Beckman DU® 7400 spectrophotometer. Fresh solutions of GSH, Ψ-GSH and asparthione were prepared on the day of the assays with distilled, deionized water. In each assay, the cell contained a total volume of 3.0 mL which was no more than 6.0 mM with respect to methylglyoxal and 1.3 mM with respect to GSH or its analogs. […] Data were analyzed utilizing an Enzyme kinetics module of Sigmaplot 9.0 from Systat Software Inc.

Series [1] can be described thus: Pharmacokinetic evaluation in plasma. It is filed as in vivo, C57BL/6 mice. The following applies: single i.p. dose 500 mg/kg; for CL_F Clearance / absorption half-life / half-life / AUC / Cmax / Tmax: C57BL/6 mice, plasma; for absorption half-life / half-life / AUC / Cmax / Tmax: female, ip; for absorption half-life / half-life: C57BL/6, mouse, 500 mg/kg; for absorption half-life: read-out: K01 absorption half life (converted); for half-life: read-out: K10 elimination half life (converted); for AUC / Cmax / Tmax: mouse. Here is the method: Pharmacokinetic Evaluation of Ψ-GSH. Eight weeks old C57BL/6 female mice (n=4 animals/time point) were given 500 mg/kg of GSH or Ψ-GSH in saline intraperitoneally. Blood samples were collected at […], 1, 2, 4, 8, 24 hr after the drug administration through retro-orbital bleeding into heparin-coated tubes. Blood was immediately centrifuged at 5000×g for 10 min at 4° C. The top plasma layer was transferred into a new tube and mixed with an equal volume of 5% sulfosalicylic acid in […] potassium phosphate buffer containing 1 mM EDTA disodium salt (pH 7.2). This was followed by centrifugation of samples at 8000×g for 10 min at 4° C. and analysis of thiol concentration. The derivatization reaction was realized utilizing 130 μL of the supernatant, 500 μL of Tris-HCl buffer 0.5 M, pH 8.9 and 350 μL of DTNB 10 mM in of K2HPO4 (0.5 M, pH 8.0). After 5 min in an ice bath, the reaction mixture was acidified by addition of 100 μL H3PO4 7 M and centrifuged at 3000×g for 10 min. Then, derivatized GSH or Ψ-GSH was filtered through a 0.22 μm membrane and 20 μL was injected in HPLC at 330 nm. HPLC analysis was carried out on a Beckman Coulter Gold HPLC system, controlled by a system controller (32 Karat workstation with PC). The HPLC conditions employed a Varian Microsorb column (C18, 5 μm, 4.6×250 mm) using solvent A [water containing 0.9% v/v formic acid] and solvent B [acetonitrile] with 1 mL/min flow rate and detected at 330 nm. Solvent B was increased from 0 to 30% in 9 min, then to 80% in 7 min, and held at 80% for an additional 4 min. The retention time for derivatized Ψ-GSH was 11.8 minutes.

The subject of the next series is SH-SY-5Y cells. In words: Determination of intracellular MG concentration after glucose treatment. It counts as cell-based, human. The settings on record: 50 mM glucose three days, compound 500 μM. How it is done: Determination of Intracellular MG Concentration. SHSY5Y cells were seeded in a T150 flask and allowed to grow for 24 h. The next day, cells were treated with glucose (50 mM) in the presence and the absence of GSH or Ψ-GSH (500 μM). Cells without glucose treatment were used as a control. After 3 days of treatment, the cell pellet was collected and sonicated in 1 mL of PBS buffer to obtain cell lysates, which were derivatized as follows: 1 mL of cell lysate+0.2 mL 5 M HClO4+0.2 mL 10 mM 1,2 diaminobenzene+0.1 mL 1 μM 5-methylquinoxaline (internal std.)+0.5 mL water to 2 mL final volume. Samples were incubated at room temperature overnight and then centrifuged. The supernatant was passed through a C-18 SPE cartridge which had been prepared by flushing 2-4 mL of acetonitrile followed by 2-4 mL of 10 mM KH2PO4 (pH 2.4). After evaporation of the acetonitrile layer, the solid obtained was redissolved in 0.2 mL of 20% acetonitrile in 10 mM KH2PO4 (pH=2.4). The concentration of MG derivative, 2-methylquinoxaline, was measured using a Beckman Coulter Gold chromatography system. The column was Varian Microsorb-MV 300-5 25 cm C18 column (4.6 mm internal diameter and 5 μm particle diameter). The mobile phase was 80 vol % of 10 mM KH2PO4 and 20 vol % of HPLC grade acetonitrile. […]

The subject of the next series is APP/PS1 mice. Briefly: Brain lipid peroxidation (TBARS) assay. It is filed as in vivo. How it is done:
Efficacy Study Design. To determine the effect of intraperitoneal and oral Ψ-GSH treatment, the study was divided in four groups (10 mice/group). 1. APP/PS1 mice-vehicle control, 2. APP/PS1 mice-Ψ-GSH i.p. 500 mg/kg, 3. APP/PS1 mice-Ψ-GSH oral 500 mg/kg, 4. Non-transgenic wild type mice-vehicle control. All the animals in the above-said groups were treated with saline or Ψ-GSH three times a week for 12 weeks, starting at the age of three to four months. Eleven weeks after the start of the treatment, the animals were tested in the Morris water maze, and twelve weeks after the start of the treatment, the animals were sacrificed for histopathological analysis.
Lipid Peroxidation Assay. The levels of lipid peroxidation were quantified by the thiobarbituric acid-reactive substances (TBARS) assay. Brain homogenate was treated with 2 ml of (1:1:1) ratio (TBA) thiobarbituric acid -(TCA) trichloroacetic acid -(HCl) chloridic acid reagent (TBA 0.37%, 0.25 N HCL and 15% TCA) and placed in water bath for 15 min, cooled and centrifuged and then clear supernatant was measured at 535 nm against reference blank. Protein was determined by the BCA protein assay kit. TBARS were normalized to the protein content in each sample and then expressed as percentage of the corresponding values in non-transgenic saline controls.

The half-life is the time in which the quantity being followed falls by half. Usually AUC stands for the area under the concentration-time curve, a measure of exposure. High values mean more exposure, low ones less exposure. What is called Cmax is the peak of the concentration-time curve. Usually Tmax stands for the time at which the peak concentration occurs. Consider `N[C@@H](CCC(=O)N[C@@H](CS)C(=O)NCC(=O)O)C(=O)O` [GSH, Glutathione], for which, at yeast glyoxalase I, the “slope for initial velocity vs. substrate concentration” value amounted to 0.1954±0.0216. Moreover, in series [1], the “CL_F Clearance” value is 165.9 mL/min/kg, the absorption half-life was 7.62 min, the half-life is 29.7 min and the AUC worked out at 50.2 µg·h/mL. For the same molecule, in series [1], the Cmax was found to be 43.9 µg/mL and the Tmax was determined as 20.2 min. Also, the “glucose-induced intracellular MG accumulation” value in the series with SH-SY-5Y cells is on record as “prevented glucose-induced intracellular MG accumulation”.

`N[C@@H](CNC(=O)N[C@@H](CS)C(=O)NCC(=O)O)C(=O)O` [Ψ-GSH, γ-Gla-Cys-Gly-OH]: the “TBARS levels in brain (WT saline = 100%)” value with APP/PS1 mice (i.p.) is 95.3±5.51%. In addition, the “levels of lipid peroxidation” value in the series on APP/PS1 mice (oral) is listed as “unaffected”. Further, the “slope for initial velocity vs. substrate concentration” value on yeast glyoxalase I stood at 0.0498±0.0040. In series [1], the “CL_F Clearance” value was 31.15 mL/min/kg, the absorption half-life was 10.3 min, the half-life is 73.6 min and the AUC is 267 µg·h/mL. In series [1], the Cmax came out at 110 µg/mL, the Tmax came to 34 min, the “AUC relative to GSH” value is given as 5.3 fold and the “Cmax relative to GSH” value worked out at 2.5 fold. Moreover, the “Tmax relative to GSH” value in series [1] is 3 fold. In addition, the “glucose-induced intracellular MG accumulation” value in the series on SH-SY-5Y cells is given as “prevented glucose-induced intracellular MG accumulation”.
